Here are results for nine molecules from patent US12636342B2, “TARS derived from Akkermansia muciniphila or fragment thereof, and use thereof” (KOREA RESEARCH INSTITUTE OF BIOSCIENCE AND BIOTECHNOLOGY, priority 2020, dated 2026).

One data set has as its system BMDMs. Briefly: AmTARS-stimulated BMDMs pre-treated with kinase/CREB inhibitors. The class given is cell-based, mouse. To be noted: for IL-10 production by AmTARS: BMDMs pre-treated 1 h with inhibitor (10 μM; 666-15 1 μM) before AmTARS 24 h; for macrophage polarization (CD206 positive) by AmTARS: BMDMs pre-treated 1 h with inhibitor before AmTARS 24 h. As for the experimental part: (A and B) Analysis of key molecules that inhibit the MAPK and PI3K/AKT signaling pathways. IL-10 produced by BMDMs pre-treated with inhibitors of ERK (PD98059, […]), p38 (SB203580, […]), MSK1/2 (SB747651A, 10 μM), CREB (666-15, 1 μM), PI3K (Wortmannin, 10 μM), and AKT1/2 (AKT1/2, 10 μM) for 1 h before treatment with either PBS or AmTARS for 24 h (n=6 per group) (A). Flow cytometry analysis of M2 macrophages in BMDMs pre-treated for 1 h with the indicated kinase inhibitors, before treatment with either PBS or AmTARS for 24 h (n=3 per group) (B). (C and D) Western blot analysis of MAPK signaling molecules in lysates of BMDMs (C) or THP1 cells (D) treated for different times with 0.5 μM AmTARS. (E) Western blot analysis of lysates of BMDMs pre-treated with α-IgG (Isotype, 1 μg ml-1) or α-TLR2 (1 μg ml-1) for 1 h before treatment with PBS, AmTARS (0.5 μM), or Pam3 (0.5 μM) for 30 min. (F and G) Western blot analysis of PI3K/AKT signaling molecules in lysates of BMDMs (F) or THP1 cells (G) treated with 0.5 μM AmTARS. […] Activation of AKT, ERK, and CREB was measured by western blot analysis of lysates of THP1 cells pre-treated with α-IgG, α-TLR1, α-TLR2, or α-TLR6 (1 μg ml-1) for 1 h before treatment for 30 min with PBS or AmTARS (0.5 µM). […] P-values were calculated using an unpaired two-tailed Student's t-test. Data shown in (C-H) are representative and repeated at least three times.
To identify the signaling pathway triggered by AmTARS, we first evaluated kinases and CREB. IL-10 production and M2 polarization were measured in BMDMs treated with inhibitors of ERK (PD98059), p38 (SB203580), MSK1/2 (SB747651A), CREB (666-15), PI3K (Wortmannin) and AKT (AKT1/2) before subsequent stimulation with AmTARS.

Data set [1] relates to mouse bone marrow-derived macrophages (BMDMs). The data set is described as follows: ELISA of immune cytokine secretion in LPS-treated BMDMs (inflammatory environment). The class given is cell-based. As to the method:
To determine whether AmTARS affects immune cytokine secretion when cellular inflammation was induced, mouse bone marrow-derived macrophages BMDMs as mouse-derived immune cells and human macrophages THP1 as human-derived immune cells were cultured by way of the same method as in Example 2.
Specifically, the cultured BMDMs and THP1 were treated with lipopolysaccharide (LPS) to induce an inflammatory response and were simultaneously treated with AmTARS at 0.1 μM, 0.2 μM, and 0.5 μM for 24 h to obtain cell cultures. The obtained cell cultures were analyzed for immune cytokine secretion by way of the same method as in Example 2.
Next, BMDMs were treated with LPS to create an inflammatory environment by way of the same method as in Example 3, and then treated with each TARS (AmTARS, BfTARS, eTARS, and hTARS) to investigate the secretion of IL-10.
An inflammatory environment was created through LPS in BMDMs by way of the same method as in Example 3, and then the cells were treated with the four types of fragments, and the immune cytokine secretion was determined by ELISA.
For orientation: In an ELISA, binding on a coated surface is turned into a signal by an enzyme label.

Data set [2] shares this test system. The data set is described as follows: ELISA of immune cytokine secretion in BMDMs under normal conditions. The class given is cell-based. To be noted: normal (non-inflammatory) conditions, 24 h. As to the method: Specifically, mouse bone marrow-derived macrophages (BMDMs) as mouse-derived immune cells were extracted from the mouse thighbone and shinbone, and then cultured in DMEM containing 10% fetal bovine serum (FBS) and antibiotics. Human macrophages (THP1) as human-derived immune cells were cultured in RPMI media containing 10% FBS and antibiotics.
The cultured cells were treated with AmTARS at 0.1 μM, 0.2 μM, and 0.5 μM for 24 h to obtain cell cultures. For cell removal, the media were centrifuged at 500×g for 10 min to obtain supernatants, which were then analyzed using an ELISA set (mouse interleukin (IL)-6, mouse IL-10, mouse tumor necrosis factor (TNF)-α, human IL-6, human IL-10, human TNF-α; BD Biosciences) to investigate the secretion of mouse- and human-derived immune cytokines. […]

The nature of data set [3]: Aminoacylation reaction (malachite green phosphate assay). In kind it is biochemical. Particulars: L-threonine, ATP, 30 min, free Pi at 620 nm. As for the experimental part:
TARS is an […] involved in protein synthesis, and the domain and site involved in its function are well known. The constructed deletion mutants were confirmed to have deletions of parts irrelevant to the function, but the aminoacylation reaction experiment was conducted to determine whether the deletion mutants performed the intrinsic functions thereof appropriately.
Specifically, a 2× reaction solution (100 mM Tris-HCl (pH 7.5), 20 mM MgCl2, 200 mM NaCl, 200 mM KCl, 2 mM DTT, 500 μM ATP, and 5 mM L-threonine) was prepared, and 25 μL of a reaction solution, 20 μL of distilled water, and 5 μL of protein were added to make a final 50 μL volume, followed by incubation for 30 min. Thereafter, a reaction was conducted using a malachite green phosphate assay kit (Bioassay Systems) for 30 min, and the free monophosphate group (Pi) was measured at a wavelength of 620 nm.

The mark [4] stands for this setting: LPS-induced inflammatory environment, 24 h.

In the case of `CCn1c(-c2nonc2N)nc2cncc(CNC3CCNCC3)c21` [SB747651A], in the data set with BMDMs, the “IL-10 production by AmTARS” value was “significant suppression” and the “macrophage polarization (CD206 positive) by AmTARS” value (from here on “macrophage polarization”) is “significant suppression”.

Consider `C[S+]([O-])c1ccc(-c2nc(-c3ccncc3)c(-c3ccc(F)cc3)[nH]2)cc1` (stereo not shown) [SB203580], for which, in the data set with BMDMs, the “IL-10 production by AmTARS” value was “significant suppression” and the “macrophage polarization” value is reported as “significant suppression”.

For the molecule `COc1cccc(-c2cc(=O)c3ccccc3o2)c1N` [PD98059], in the data set with BMDMs, the “IL-10 production by AmTARS” value is “significant suppression” and the “macrophage polarization” value was “significant suppression”.

Regarding “R2: Functional site 2 peptide, SEQ ID NO: 4, residues 290-312 of SEQ ID NO: 1 (KLSQEGASCAELFNGLATGTIEG; Functional region 2(290˜312))”, the “secretion of IL-6” value is on record as “reduced” in data set [1] (LPS, peptide 100 μM); “reduced” in data set [1] (LPS, peptide 300 μM); “reduced” in data set [1] (setting [4]). The “secretion of IL-10” value is recorded as “increased” in data set [1] (LPS, peptide 100 μM); “increased” in data set [1] (LPS, peptide 300 μM); “increased” in data set [1] (setting [4]).

Turning to `O=c1[nH]c2ccccc2n1C1CCN(Cc2ccc(-c3nc4cc5[nH]cnc5cc4nc3-c3ccccc3)cc2)CC1` [AKT1/2], in the data set on BMDMs, the “IL-10 production by AmTARS” value was “significant suppression” and the “macrophage polarization” value was “significant suppression”.

B1: hTARS: TARS derived from Homo sapiens (protein)
chain: MFEEKASSPSGKMGGEEKPIGAGEEKQKEGGKKKNKEGSGDGGRAELNPWPEYIYTRLEMYNILKAEHDSILAEKAEKDSKPIKVTLPDGKQVDAESWKTTPYQIACGISQGLADNTVIAKVNNVVWDLDRPLEEDCTLELLKFEDEEAQAVYWHSSAHIMGEAMERVYGGCLCYGPPIENGFYYDMYLEEGGVSSNDFSSLEALCKKIIKEKQAFERLEVKKETLLAMFKYNKFKCRILNEKVNTPTTTVYRCGPLIDLCRGPHVRHTGKIKALKIHKNSSTYWEGKADMETLQRIYGISFPDPKMLKEWEKFQEEAKNRDHRKIGRDQELYFFHELSPGSCFFLPKGAYIYNALIEFIRSEYRKRGFQEVVTPNIFNSRLWMTSGHWQHYSENMFSFEVEKELFALKPMNCPGHCLMFDHRPRSWRELPLRLADFGVLHRNELSGALTGLTRVRRFQQDDAHIFCAMEQIEDEIKGCLDFLRTVYSVFGFSFKLNLSTRPEKFLGDIEVWDQAEKQLENSLNEFGEKWELNSGDGAFYGPKIDIQIKDAIGRYHQCATIQLDFQLPIRFNLTYVSHDGDDKKRPVIVHRAILGSVERMIAILTENYGGKWPFWLSPRQVMVVPVGPTCDEYAQKVRQQFHDAKFMADIDLDPGCTLNKKIRNAQLAQYNFILVVGEKEKISGTVNIRTRDNKVHGERTISETIERLQQLKEFRSKQAEEEF
modifications: 6xHis tag; misc_feature 1..2175 Homo sapiens TARS
As for B1, the “secretion of IL-10” value in data set [1] (setting [4]) is given as “not significantly increased”.

B2: eTARS: TARS derived from E. coli (protein)
chain: MPVITLPDGSQRHYDHAVSPMDVALDIGPGLAKACIAGRVNGELVDACDLIENDAQLSIITAKDEEGLEIIRHSCAHLLGHAIKQLWPHTKMAIGPVIDNGFYYDVDLDRTLTQEDVEALEKRMHELAEKNYDVIKKKVSWHEARETFANRGESYKVSILDENIAHDDKPGLYFHEEYVDMCRGPHVPNMRFCHHFKLMKTAGAYWRGDSNNKMLQRIYGTAWADKKALNAYLQRLEEAAKRDHRKIGKQLDLYHMQEEAPGMVFWHNDGWTIFRELEVFVRSKLKEYQYQEVKGPFMMDRVLWEKTGHWDNYKDAMFTTSSENREYCIKPMNCPGHVQIFNQGLKSYRDLPLRMAEFGSCHRNEPSGSLHGLMRVRGFTQDDAHIFCTEEQIRDEVNGCIRLVYDMYSTFGFEKIVVKLSTRPEKRIGSDEMWDRAEADLAVALEENNIPFEYQLGEGAFYGPKIEFTLYDCLDRAWQCGTVQLDFSLPSRLSASYVGEDNERKVPVMIHRAILGSMERFIGILTEEFAGFFPTWLAPVQVVIMNITDSQSEYVNELTQKLSNAGIRVKADLRNEKIGFKIREHTLRRVPYMLVCGDKEVESGKVAVRTRRGKDLGSMDVNEVIEKLQQEIRSRSLKQLEE
modifications: 6xHis tag; misc_feature 1..1929 Escherichia coli TARS
B2: the “secretion/production of IL-10” value in data set [2] is “no anti-inflammatory immune function”. Besides, the “secretion of IL-10” value in data set [1] (setting [4]) is given as “not significantly increased”.

B3: Akkermansia muciniphila-derived YARS (protein)
chain: MTIDEQLDILMGGTAVVISREELKERLKLGRPLRVKLGVDPTAPDIHLGHTVAIEKLRQFQELGHQAVLLIGDFTATIGDPSGRSVTRPPLSREQVLENAETYTKQAFKILDRDKTEIVYNGDWFRKMTYEEVLKLNSRVTMQQMLAREDFKARVEGGKEVRLHEMQYPIMQGWDSVEIRADVELGGTDQLFNILVGRDLQKEEGMLPQIAMTMPLLEGLDGVRKMSKSYGNYVGVDESPEMMFGKMMSASDELMDRYYLVLLGEKRDMGLHPMEAKKLLAWKITARYHDSAAADAARSDWETRFSKRDLAAADLPEVEIASLPADMNALALVSFLFENVFQVKKSNGVLRKEHFTPGAIQLNDVKMTDPSAVLELAPGSILRLSKKHAVRFK
modifications: 6xHis tag; misc_feature 1..1182 Akkermansia muciniphila YARS
notes: Akkermansia muciniphila tyrosyl-tRNA synthetase, used as control
Turning to B3, the “aminoacylation reaction / enzymatic activity” value in data set [3] is given as “no reaction”.

B4: BfTARS: TARS derived from Bacteroides fragilis (protein)
chain: MIKITFPDGSVREYNEGVNGLQIAESISSRLAQDVLACGVNGEIYDLGRPINEDASVVLYKWEDEQGKHAFWHTSAHLLAEALQELYPGIQFGIGPAIENGFYYDVDPGEAVIKEADLPAIEAKMAELVAKKEAVVRRDIAKGDALKMFGDRGETYKCELISELEDGHITTYTQGDFTDLCRGPHLMTTAPIKAIKLTSVAGAYWRGHEDRKMLTRIYGITFPKKKMLDEYLALMEEAKKRDHRKIGKEMQLFMFSDTVGKGLPMWLPKGTALRLRLQDFLRRIQTRYDYQEVITPPIGNKLLYVTSGHYAKYGKDAFQPIHTPEEGEEYFLKPMNCPHHCEIYKNFPRSYKDLPLRIAEFGTVCRYEQSGELHGLTRVRSFTQDDAHIFCRPDQVKGEFLRVMDIISIVFRSMDFDNFEAQISLRDKVNREKYIGSDENWEKAEQAIIEACEEKGLKAKIEYGEAAFYGPKLDFMVKDAIGRRWQLGTIQVDYNLPERFELEYMGSDNQKHRPVMIHRAPFGSMERFVAVLIEHTAGKFPLWLTPEQVVILPISEKFNEYAEKVKTYLKMKEIRAIVDDRNEKIGRKIRDNEMKRIPYMLIVGEKEAENGEVSVRRQGEGDKGTMKFEEFGEILNEEVQNMINKW
modifications: 6xHis tag; misc_feature 1..1941 Bacteroides fragilis TARS
Regarding B4, in data set [1] (setting [4]), the “secretion of IL-10” value is listed as “not significantly increased”.
